The values that follow come from US20140038974A1, “Compositions and Methods for Eye Whitening” (Eye Therapies, LLC, priority 2009, published 2014).

One data set is described as follows: Log P (Table 1). The data set is classed as physicochemical.
The test system of the next data set is nasal congestion. As for the experimental part: (§1) The subjects were administered with the drug in one eye and then asked to assess themselves in the mirror to see if they perceived a difference in conjunctival hyperemia between eyes. The assessments were made 5 minutes after the administration and 4 hours after the administration. After the four hours assessment, the drug was re-administered.

Data set [1] has as its system conjunctival hyperemia / whiteness of eye. The following applies: for subjects reporting reduced hyperemia and increased whiteness in the treated eye: […] brimonidine, one eye, 8 human subjects. As for the experimental part:
as §1

Data set [2] deals with eye. As to conditions: […] brimonidine. As for the experimental part:
FIG. 13 is a photograph of both eyes of the person before the drug was administered. FIG. 14A is a close-up photograph of the right eye and FIG. 14B is a close-up photograph of the left eye.

The test system of data set [3] is eye. The following applies: for effectiveness at reducing eye redness: both general eye redness and eye redness induced by drug administration.
Excerpt: Redness reduction is on a scale from 0.00 to 4.00 with 0.00 denoting the greatest redness reduction and 4.00 denoting no redness reduction. Whitening is on a scale from 0.00 to 4.00 with 0.00 denoting pearly white, glistening color and 4.00 denoting no whitening effect.
In data set [4] the test system is α-2(a)-(c) adrenergic receptor subtypes. Briefly: α-2 receptor subtype preference, α-2(a)-(c) (Table 1). The data set is classed as binding.
Data set [5] concerns α-2 over α-1 adrenergic receptors.
Setting [6] is: with or without redness induced by drug administration.

Where two headings read alike, the source gives them in different places.

What is called logP is the decadic logarithm of the partition coefficient of the neutral form, usually between octanol and water. `Brc1c(NC2=NCCN2)ccc2nccnc12` [Brimonidine, brimonidine] yielded a lipophilicity (logP) in “Log P (Table 1)” of 1. Moreover, in the data set with nasal congestion ([…] brimonidine, one eye, four hour assessment, 8 human subjects), the “subjects reporting reduced nasal congestion in the nostril on the same side as the treated eye” value is recorded as “six of eight”. Further, the “effect on nasal congestion” value in the data set with nasal congestion (in several subjects, nostril on the same side as the treated eye, Example 3 conclusion) is listed as “reducing nasal congestion”. Also, the “subjects reporting reduced hyperemia and increased whiteness in the treated eye” value in data set [1] (5 min assessment) and in data set [1] (four hour assessment) was “eight of eight” throughout. In addition, in data set [1] (low dose ([…]) brimonidine, Example 3 conclusion), the “effect on redness and whiteness of eyes” value is “significant reduction of redness and increase of whiteness”. Besides, the “cosmetic whitening of an eye” value with eye [2] (right eye, person with healthy eyes, left eye untreated) is given as “noticeably cosmetically whitened”. In addition, the “effect on redness and whiteness of an eye” value in the data set with eye [2] (child patient) is “significant reduction of redness and increase of whiteness”; with eye [2] (patient with glaucoma receiving Lumigan (bimatoprost 0.03%)), “significant reduction of redness and increase of whiteness”. In addition, the “further whitening eyes beyond their usual color” value with eye [3] (after redness inducing drug administration) is recorded as “general ineffectiveness”. In the data set with eye [3], the “effectiveness at reducing eye redness” value is “highly effective”. For the same compound, the “Other (pH dependence of effect)” value in the data set with eye [3] (in vivo) is “>effect lo pH”. In data set [4], the “α-2(a)-(c)” value is “general”.
As for `Cc1cccc([C@H](C)c2cnc[nH]2)c1C` [Dexmedetomidine, dexmedetomidine], in the data set “Log P (Table 1)”, the logP stood at 3. Further, the “effectiveness at reducing eye redness” value in the data set with eye [3] is “highly effective”. For the same compound, the “further whitening eyes beyond their usual color” value with eye [3] (setting [6]) is recorded as “generally ineffective”. Also, the Selectivity in data set [5] is 1660. Moreover, in data set [4], the “α-2(a)-(c)” value is on record as “general”.
By Log P is commonly meant a log measure of how a compound divides between an organic and an aqueous phase. The low end stands for lower lipophilicity, the high end for higher lipophilicity. In the case of `Oc1ccc2c(c1)C(Cc1c[nH]cn1)CC2` (stereo not shown) [Fadolmidine, fadolmidine], in the data set “Log P (Table 1)”, the log partition coefficient (Log P) was determined as 2.16. Moreover, in data set [4], the “α-2(a)-(c)” value is listed as “general”.
As for guanfacine, the “effectiveness at reducing eye redness” value in the data set on eye [3] is recorded as “highly effective”. Moreover, in the data set with eye [3] (in vivo), the “Other (pH dependence of effect)” value is on record as “>effect hi pH” and the “Redness Reduction” value worked out at 0.00. For the same compound, the “further whitening eyes beyond their usual color” value with eye [3] (setting [6]) is given as “highly effective”. For the same compound, in data set [4], the “α-2(a)-(c)” value is listed as 2(a) high.
